Reference: patent US10280171B2, “Heterocyclic inhibitors of PTPN11” (priority 2016, dated 2019)

Tests used:
[1] = biological target: PTPN11-E76K mutant enzyme (Homo sapiens (Human), UniProt Q06124, E76K); assay: PTPN11 Enzymatic Assay (DiFMUP phosphatase activity); assay type: biochemical; settings: full length PTPN11-E76K mutant enzyme 250 pM, DiFMUP 50 μM, 30 min preincubation; read-out: PTPN11-E76K Avg IC50
Method: Reaction was initiated by addition of DiFMUP (50 μM) at room temperature in 384-well black plate with a final reaction volume of 20 uL in assay buffer. […] Dose-response curves were analyzed using IC50 regression curve fitting (GeneData Screener). Curves were normalized to a high controls without inhibitor, and low controls without enzyme.

[2] = tested on: Phospho-ERK levels in KYSE-520 cells; assay: pERK AlphaScreen Protocol; assay type: cell-based; settings: Homo sapiens, KYSE-520, 2 h, KYSE-520 cells, 2 hr compound incubation, phospho-ERK1/2 AlphaScreen SureFire; read-out: PERK Avg IC50
Method: KYSE-520 cells (10 k cells/well) were grown in 384-well plate in 20 uL of medium (RPMI-1640, without phenol red, containing 10% FBS) at 37° C. with 5% CO2 overnight. DMSO (control) or increasing concentrations of compounds were diluted in medium, added to the 384-well plate (5 uL/well, final DMSO concentration of 1%), and cells were then incubated with compounds for 2 hr. Phospho-ERK levels were measured using phospho-ERK1/2 AlphaScreen SureFire (PerkinElmer, TGRESB10K) following manufacturer's recommendations. Dose-response curves were analyzed using IC50 regression curve fitting (GeneData Screener). Curves were normalized to a high control without inhibitor (DMSO only), and low control (1 μM selumetinib).

Chain of PTPN11-E76K mutant enzyme (Q06124 whole entry E76K): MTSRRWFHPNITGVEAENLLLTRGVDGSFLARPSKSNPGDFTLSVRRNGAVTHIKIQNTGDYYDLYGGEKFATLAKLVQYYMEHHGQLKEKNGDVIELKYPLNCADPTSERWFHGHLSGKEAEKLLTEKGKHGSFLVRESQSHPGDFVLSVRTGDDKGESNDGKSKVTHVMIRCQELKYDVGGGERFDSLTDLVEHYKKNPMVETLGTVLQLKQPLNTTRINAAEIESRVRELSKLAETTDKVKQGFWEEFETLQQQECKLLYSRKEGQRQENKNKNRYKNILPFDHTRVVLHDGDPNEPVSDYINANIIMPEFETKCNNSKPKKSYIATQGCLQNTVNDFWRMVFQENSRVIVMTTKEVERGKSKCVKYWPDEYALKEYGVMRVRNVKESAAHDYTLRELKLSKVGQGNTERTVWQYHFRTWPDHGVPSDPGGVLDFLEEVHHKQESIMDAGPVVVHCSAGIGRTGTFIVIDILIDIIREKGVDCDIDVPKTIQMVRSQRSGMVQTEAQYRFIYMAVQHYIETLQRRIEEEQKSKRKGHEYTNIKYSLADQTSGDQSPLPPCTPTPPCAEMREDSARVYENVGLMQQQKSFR

Row | SMILES | IC50 [1] [nM] | IC50 [2] [nM]
1 | N[C@@H]1CCCC12CCN(c1cnc3c(-c4ccc(F)c(Cl)c4)n[nH]c3n1)CC2 [Example 47, (R)-8-(3-(3-chloro-4-fluorophenyl)-1H-pyrazolo[3,4-b]-pyrazin-6-yl)-8-aza-spiro[4.5]decan-1-amine] | 493 | 343
2 | N[C@@H]1CCCC12CCN(c1cnc3c(-c4cccc(C(F)(F)F)c4)n[nH]c3n1)CC2 [Example 48, (R)-8-(3-(3-(trifluoromethyl)-phenyl)-1H-pyrazolo[3,4-b]pyrazin-6-yl)-8-azaspiro[4.5]decan-1-amine] | 1760 | 586
3 | N[C@@H]1CCCC12CCN(c1cnc3c(-c4cccc(Cl)c4F)n[nH]c3n1)CC2 [Example 49, (R)-8-(3-(3-chloro-2-fluorophenyl)-1H-pyrazolo[3,4-b]-pyrazin-6-yl)-8-aza-spiro[4.5]decan-1-amine] | 143 | 62
4 | COc1cccc(-c2n[nH]c3nc(N4CCC5(CCC[C@H]5N)CC4)cnc23)c1Cl [Example 50, (R)-8-(3-(2-chloro-3-methoxyphenyl)-1H-pyrazolo[3,4-b]pyrazin-6-yl)-8-azaspiro[4.5]decan-1-amine] | 39 | 34
5 | N[C@@H]1CCCC12CCN(c1cnc3c(-c4ccccc4Cl)n[nH]c3n1)CC2 [Example 54, (R)-8-(3-(2-chlorophenyl)-1H-pyrazolo[3,4-b]-pyrazin-6-yl)-8-aza-spiro[4.5]decan-1-amine] | 119 | 64
6 | Cc1ncccc1-c1n[nH]c2nc(N3CCC4(CCC[C@H]4N)CC3)cnc12 [Example 55, (R)-8-(3-(2-methyl-pyridin-3-yl)-1H-pyrazolo[3,4-b]-pyrazin-6-yl)-8-azaspiro[4.5]decan-I -amine] | 1140 | 712
7 | NC1(CO)CCN(c2cnc3c(-c4cccc(Cl)c4Cl)n[nH]c3n2)CC1 [Example 57, (4-Amino-1-(3-(2,3-dichlorophenyl)-1H-pyrazolo[3,4-b]pyrazin-6-yl)piperidin-4-yl)-methanol] | 104 | 53
8 | NC1(CF)CCN(c2cnc3c(-c4cccc(Cl)c4Cl)n[nH]c3n2)CC1 [Example 58, 1-(3-(2,3-dichlo-rophenyl)-1H-pyrazolo[3,4-b]-pyrazin-6-yl)-4-(fluoromethyl)-piperidin-4-amine] | 338 | 109
9 | NCC1(O)CCN(c2cnc3c(-c4ccccc4Cl)n[nH]c3n2)CC1 [Example 60, 4-(aminomethyl)-1-(3-(2-chlorophenyl)-1H-pyrazolo[3,4-b]-pyrazin-6-yl)-piperidin-4-ol] | 918 | 317
10 | NC1(CO)CCN(c2cnc3c(-c4ccccc4Cl)n[nH]c3n2)CC1 [Example 61, (4-amino-1-(3-(2-chlorophenyl)-1H-pyrazolo[3,4-b]-pyrazin-6-yl)-piperidin-4-yl)-methanol] | 401 | 221
11 | CC1(N)CCN(c2cnc3c(-c4cn[nH]c4C(F)(F)F)n[nH]c3n2)CC1 [Example 101, 4-Methyl-1-(3-(5-(trifluoromethyl)-1H-pyrazol-4-yl)-1H-pyrazolo[3,4-b]pyrazin-6-yl)-piperidin-4-amine] | 1890 | 638
12 | N[C@@H]1CCCC12CCN(c1cnc3c(-c4cn[nH]c4C(F)(F)F)n[nH]c3n1)CC2 [Example 102, (R)-8-(3-(5-(Trifluoromethyl)-1H-pyrazol-4-yl)-1H-pyrazolo[3,4-b]pyrazin-6-yl)-8-azaspiro[4.5]decan-1-amine] | 2150 | 1180
13 | CC1(CN)CCN(c2cnc3c(-c4cn[nH]c4C(F)(F)F)n[nH]c3n2)CC1 [Example 103, (4-Methyl-1-(3-(5-(trifluoromethyl)-1H-pyrazol-4-yl)-1H-pyrazolo[3,4-b]-pyrazine-6-yl)piperidin-4-yl)methanamine] | 2600 | 1630
